Measured values reported in PubChem BioAssay AID1963831 (Molecular Pharmacology Branch, DTP, NCI, 2024).

System: 889142-216-R-J1-PDC complex spheroid viability
Experiment: Anticancer human tumor 889142-216-R-J1-PDC patient-derived bladder carcinoma cell line growth inhibition [POLQ]
Conditions: for IC50: curve of first compound; for viability, T/C: stronger effect = lower value; active = viability on the fitted dose curve at most 10% of control; inactive = the rest
Summary of the method: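 Three-cell-type spheroids modelling solid tumor plus stroma served as the readout system; POL inhibitors were tested individually and in combination, concentration ranges set by clinical Cmax where known.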

[1] = second compound 0.0316 µM, first compound 0.0316 µM
[2] = second compound 0.0316 µM, first compound 0.1 µM
[3] = second compound 0.0316 µM, first compound 0.316 µM
[4] = second compound 0.0316 µM, first compound 1 µM
[5] = second compound 0.1 µM, first compound 0.0316 µM
[6] = second compound 0.1 µM, first compound 0.1 µM
[7] = second compound 0.1 µM, first compound 0.316 µM
[8] = second compound 0.1 µM, first compound 1 µM
[9] = second compound 0.316 µM, first compound 0.0316 µM
[10] = second compound 0.316 µM, first compound 0.1 µM
[11] = second compound 0.316 µM, first compound 0.316 µM
[12] = second compound 0.316 µM, first compound 1 µM
[13] = second compound 1 µM, first compound 0.0316 µM
[14] = second compound 1 µM, first compound 0.1 µM
[15] = second compound 1 µM, first compound 0.316 µM
[16] = second compound 1 µM, first compound 1 µM
[17] = second compound 3.16 µM, first compound 0.0316 µM
[18] = second compound 3.16 µM, first compound 0.1 µM
[19] = second compound 3.16 µM, first compound 0.316 µM
[20] = second compound 3.16 µM, first compound 1 µM
[21] = second compound 10 µM, first compound 0.0316 µM
[22] = second compound 10 µM, first compound 0.1 µM
[23] = second compound 10 µM, first compound 0.316 µM
[24] = second compound 10 µM, first compound 1 µM
[25] = second compound 0.0316 µM, first compound 3.16 µM
[26] = second compound 0.0316 µM, first compound 10 µM
[27] = second compound 0.1 µM, first compound 3.16 µM
[28] = second compound 0.1 µM, first compound 10 µM
[29] = second compound 0.316 µM, first compound 3.16 µM
[30] = second compound 0.316 µM, first compound 10 µM
[31] = second compound 1 µM, first compound 3.16 µM
[32] = second compound 1 µM, first compound 10 µM
[33] = second compound 3.16 µM, first compound 3.16 µM
[34] = second compound 3.16 µM, first compound 10 µM
[35] = second compound 10 µM, first compound 3.16 µM
[36] = second compound 10 µM, first compound 10 µM
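Also: spheroids exposed to compounds for seven days.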
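For viability, T/C in this document: 100% = DMSO vehicle control viability.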

CCc1c2c(nc3ccc(O)cc13)-c1cc3c(c(=O)n1C2)COC(=O)[C@]3(O)CC + Nc1ccc(C#CCN(C(=O)Cc2ncc(C(F)(F)F)cc2C(F)(F)F)c2ccc(F)cc2)nn1
active: viability, T/C [24] 6.89%
0.0224 µM: IC50 (second compound 3.16 µM)
0.0195 µM: IC50 (second compound 0.0316 µM)
0.0117 µM: IC50 (second compound 10 µM)
0.0133 µM: IC50 (second compound 0.316 µM)
0.016 µM: IC50 (second compound 0.1 µM)
inactive: viability, T/C (second compound 0.0316 µM, first compound 0.00316 µM) 63.1% | viability, T/C (second compound 0.0316 µM, first compound 0.01 µM) 61.6% | viability, T/C [1] 41.2% | viability, T/C [2] 32.9% | viability, T/C [3] 25.2% | viability, T/C [4] 9.02% | viability, T/C (second compound 0.1 µM, first compound 0.00316 µM) 61.2% | viability, T/C (second compound 0.1 µM, first compound 0.01 µM) 51.1% | viability, T/C [5] 44.6% | viability, T/C [6] 34.8% | viability, T/C [7] 30.4% | viability, T/C [8] 8.83% | viability, T/C (second compound 0.316 µM, first compound 0.00316 µM) 66.6% | viability, T/C (second compound 0.316 µM, first compound 0.01 µM) 50% | viability, T/C [9] 38.6% | viability, T/C [10] 34% | viability, T/C [11] 23.9% | viability, T/C [12] 11.5% | viability, T/C (second compound 1 µM, first compound 0.00316 µM) 70% | viability, T/C (second compound 1 µM, first compound 0.01 µM) 46.6% | viability, T/C [13] 41.3% | viability, T/C [14] 30.5% | viability, T/C [15] 23.4% | viability, T/C [16] 11.2% | viability, T/C (second compound 3.16 µM, first compound 0.00316 µM) 59.3% | viability, T/C (second compound 3.16 µM, first compound 0.01 µM) 65.6% | viability, T/C [17] 39.4% | viability, T/C [18] 35.8% | viability, T/C [19] 30.9% | viability, T/C [20] 8.37% | viability, T/C (second compound 10 µM, first compound 0.00316 µM) 57.4% | viability, T/C (second compound 10 µM, first compound 0.01 µM) 52.2% | viability, T/C [21] 41% | viability, T/C [22] 31.6% | viability, T/C [23] 28.3%
0.0126 µM: IC50 (second compound 1 µM)

COc1ccc([C@@H](O)c2cc(-c3ncnc4cc(N5CCOCC5)ccc34)c(F)cc2Cl)nn1 + COC1C(OC(N)=O)C(O)C(Oc2ccc3c(O)c(NC(=O)c4ccc(O)c(CC=C(C)C)c4)c(=O)oc3c2C)OC1(C)C
> 10 µM: IC50 (second compound 0.1 µM)
4.53 µM: IC50 (second compound 10 µM)
2.87 µM: IC50 (second compound 1 µM)
4.25 µM: IC50 (second compound 0.0316 µM)
6.29 µM: IC50 (second compound 0.316 µM)
3.64 µM: IC50 (second compound 3.16 µM)
inactive: viability, T/C [1] 88.8% | viability, T/C [2] 88.3% | viability, T/C [3] 63.9% | viability, T/C [4] 63% | viability, T/C [25] 55.6% | viability, T/C [26] 41.5% | viability, T/C [5] 104% | viability, T/C [6] 125% | viability, T/C [7] 76.2% | viability, T/C [8] 62.7% | viability, T/C [27] 55.7% | viability, T/C [28] 35.9% | viability, T/C [9] 92.2% | viability, T/C [10] 104% | viability, T/C [11] 87% | viability, T/C [12] 79.1% | viability, T/C [29] 63.4% | viability, T/C [30] 41.4% | viability, T/C [13] 90.3% | viability, T/C [14] 112% | viability, T/C [15] 86.7% | viability, T/C [16] 59.8% | viability, T/C [31] 60.3% | viability, T/C [32] 37.3% | viability, T/C [17] 81.3% | viability, T/C [18] 120% | viability, T/C [19] 77.6% | viability, T/C [20] 66.9% | viability, T/C [33] 56.9% | viability, T/C [34] 39.8% | viability, T/C [21] 98.2% | viability, T/C [22] 82.1% | viability, T/C [23] 104% | viability, T/C [24] 74.8% | viability, T/C [35] 59.6% | viability, T/C [36] 32.9%

O=C(c1cc(Cc2n[nH]c(=O)c3ccccc23)ccc1F)N1CCN(C(=O)C2CC2)CC1 + COC1C(OC(N)=O)C(O)C(Oc2ccc3c(O)c(NC(=O)c4ccc(O)c(CC=C(C)C)c4)c(=O)oc3c2C)OC1(C)C
> 10 µM: IC50 (second compound 0.0316 µM) | IC50 (second compound 0.1 µM) | IC50 (second compound 0.316 µM) | IC50 (second compound 1 µM) | IC50 (second compound 3.16 µM) | IC50 (second compound 10 µM)
inactive: viability, T/C [1] 93% | viability, T/C [2] 92.2% | viability, T/C [3] 77.2% | viability, T/C [4] 103% | viability, T/C [25] 71% | viability, T/C [26] 68.6% | viability, T/C [5] 101% | viability, T/C [6] 117% | viability, T/C [7] 104% | viability, T/C [8] 109% | viability, T/C [27] 80.5% | viability, T/C [28] 83.5% | viability, T/C [9] 94.4% | viability, T/C [10] 111% | viability, T/C [11] 114% | viability, T/C [12] 102% | viability, T/C [29] 95.5% | viability, T/C [30] 72% | viability, T/C [13] 122% | viability, T/C [14] 116% | viability, T/C [15] 109% | viability, T/C [16] 79.3% | viability, T/C [31] 82.5% | viability, T/C [32] 65.5% | viability, T/C [17] 123% | viability, T/C [18] 109% | viability, T/C [19] 104% | viability, T/C [20] 101% | viability, T/C [33] 78.4% | viability, T/C [34] 75.5% | viability, T/C [21] 129% | viability, T/C [22] 106% | viability, T/C [23] 84.4% | viability, T/C [24] 84.8% | viability, T/C [35] 103% | viability, T/C [36] 77.9%

O=C(Nc1ccc(O)c(NS(=O)(=O)c2ccc(F)cc2)c1)c1ccc(-c2ccccc2)cc1 + Cc1cccc(N(C)C(=O)C2C(O)CCN2c2nc(C)cc(C(F)(F)F)c2C#N)c1
> 10 µM: IC50 (second compound 0.0316 µM) | IC50 (second compound 0.1 µM) | IC50 (second compound 0.316 µM) | IC50 (second compound 1 µM) | IC50 (second compound 3.16 µM) | IC50 (second compound 10 µM)
inactive: viability, T/C [1] 103% | viability, T/C [2] 106% | viability, T/C [3] 112% | viability, T/C [4] 134% | viability, T/C [25] 101% | viability, T/C [26] 85.1% | viability, T/C [5] 94.9% | viability, T/C [6] 121% | viability, T/C [7] 98.1% | viability, T/C [8] 127% | viability, T/C [27] 126% | viability, T/C [28] 86.4% | viability, T/C [9] 140% | viability, T/C [10] 93.2% | viability, T/C [11] 85.9% | viability, T/C [12] 120% | viability, T/C [29] 112% | viability, T/C [30] 80.2% | viability, T/C [13] 96.2% | viability, T/C [14] 96.7% | viability, T/C [15] 84% | viability, T/C [16] 97.5% | viability, T/C [31] 131% | viability, T/C [32] 70.4% | viability, T/C [17] 87.8% | viability, T/C [18] 123% | viability, T/C [19] 121% | viability, T/C [20] 107% | viability, T/C [33] 91.2% | viability, T/C [34] 77.6% | viability, T/C [21] 69.3% | viability, T/C [22] 98.9% | viability, T/C [23] 97% | viability, T/C [24] 89.6% | viability, T/C [35] 85.3% | viability, T/C [36] 69.4%
